Data from ChEMBL document CHEMBL1145526, “Synthesis of 11C-labelled (R)-OHDMI and CFMME and their evaluation as candidate radioligands for imaging central norepinephrine transporters with PET” (Bioorg Med Chem, 2007).
Values belong to the molecule of their own block, whether it stands above or below them.

Legend:
[1] = biological target: Sodium-dependent noradrenaline transporter (Homo sapiens, UniProt P23975)
[2] = tested on: Brain; assay: Drug uptake in cynomolgus monkey brain assessed as radio activity at 1.35 mCi after 42 mins; type: ADME, tissue-based, Macaca fascicularis; conditions: in vivo, 0.7 h
[3] = tested on: Cynomolgus monkey; assay: Ratio of drug level in cerebellum to thalamus in cynomolgus monkey at 1.35 mCi after 93 mins; type: ADME, organism-based, Macaca fascicularis; conditions: in vivo, 1.55 h
[4] = tested on: Cynomolgus monkey; assay: Ratio of drug level in cerebellum to occipital cortex in cynomolgus monkey at 1.35 mCi after 93 mins; type: ADME, organism-based, Macaca fascicularis; conditions: in vivo, 1.55 h
[5] = tested on: Cynomolgus monkey; assay: Ratio of drug level in cerebellum to mesencephalon in cynomolgus monkey at 1.35 mCi after 93 mins; type: ADME, organism-based, Macaca fascicularis; conditions: in vivo, 1.55 h
[6] = tested on: Cynomolgus monkey; assay: Ratio of drug level in cerebellum to striatum in cynomolgus monkey at 1.35 mCi after 93 mins; type: ADME, organism-based, Macaca fascicularis; conditions: in vivo, 1.55 h
[7] = tested on: Cynomolgus monkey; assay: Ratio of drug level in cerebellum to locus coreuleus in cynomolgus monkey at 1.35 mCi after 93 mins; type: ADME, organism-based, Macaca fascicularis; conditions: in vivo, 1.55 h
[8] = tested on: Brain; assay: Drug uptake in cynomolgus monkey brain assessed as radio activity at 1.35 mCi after 24 mins; type: ADME, tissue-based, Macaca fascicularis; conditions: in vivo, 0.4 h
[9] = tested on: Cynomolgus monkey; assay: Ratio of drug level in striatum to occipital cortex in cynomolgus monkey at 1.41 mCi after 93 mins; type: ADME, organism-based, Macaca fascicularis; conditions: in vivo, 1.55 h
[10] = tested on: Cynomolgus monkey; assay: Ratio of drug level in NET-rich thalamus to NET-poor striatum in cynomolgus monkey; type: ADME, organism-based, Macaca fascicularis; conditions: in vivo
[11] = tested on: Cynomolgus monkey; assay: Ratio of drug level in striatum to thalamus in cynomolgus monkey at 1.41 mCi after 93 mins; type: ADME, organism-based, Macaca fascicularis; conditions: in vivo, 1.55 h
[12] = tested on: Cynomolgus monkey; assay: Ratio of drug level in striatum to mesencephalon in cynomolgus monkey at 1.41 mCi after 93 mins; type: ADME, organism-based, Macaca fascicularis; conditions: in vivo, 1.55 h
[13] = tested on: Cynomolgus monkey; assay: Ratio of drug level in striatum to cerebellum in cynomolgus monkey at 1.41 mCi after 93 mins; type: ADME, organism-based, Macaca fascicularis; conditions: in vivo, 1.55 h
[14] = tested on: Cynomolgus monkey; assay: Ratio of drug level in striatum to lower brainstem in cynomolgus monkey at 1.41 mCi after 93 mins; type: ADME, organism-based, Macaca fascicularis; conditions: in vivo, 1.55 h
[15] = tested on: Brain; assay: Drug uptake in cynomolgus monkey brain assessed as radio activity at 1.41 mCi after 80 mins; type: ADME, tissue-based, Macaca fascicularis; conditions: in vivo
[16] = tested on: Cynomolgus monkey; assay: Ratio of drug level in thalamus to striatum in cynomolgus monkey; type: ADME, organism-based, Macaca fascicularis; conditions: in vivo

Chain of Sodium-dependent noradrenaline transporter (P23975 whole entry): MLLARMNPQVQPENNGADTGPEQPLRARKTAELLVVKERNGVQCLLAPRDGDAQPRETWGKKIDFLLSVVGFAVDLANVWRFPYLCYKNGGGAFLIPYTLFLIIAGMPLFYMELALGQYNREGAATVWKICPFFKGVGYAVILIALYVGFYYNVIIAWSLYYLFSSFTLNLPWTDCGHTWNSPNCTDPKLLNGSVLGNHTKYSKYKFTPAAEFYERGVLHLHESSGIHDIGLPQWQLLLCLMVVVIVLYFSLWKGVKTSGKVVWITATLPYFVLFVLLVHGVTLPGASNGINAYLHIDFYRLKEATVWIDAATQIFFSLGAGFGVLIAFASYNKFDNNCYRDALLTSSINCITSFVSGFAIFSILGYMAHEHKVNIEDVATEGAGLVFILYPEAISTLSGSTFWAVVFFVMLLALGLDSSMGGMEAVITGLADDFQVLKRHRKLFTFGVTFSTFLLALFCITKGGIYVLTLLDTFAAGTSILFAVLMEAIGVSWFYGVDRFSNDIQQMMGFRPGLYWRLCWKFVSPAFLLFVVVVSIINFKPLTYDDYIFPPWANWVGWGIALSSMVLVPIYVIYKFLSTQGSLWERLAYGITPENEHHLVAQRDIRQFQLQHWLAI

SMILES: [11CH3]Oc1ccc(F)cc1C[C@](O)(C1CCCC1)[C@@H]1CNCCO1
- Ratio [2]: 3.5 %ID
- Ratio [3]: 1.35
- Ratio [4]: 1.3
- Ratio [5]: 1.2
- Ratio [6]: 1.2
- Ratio [7]: 1.3
- Drug uptake [8]: 3.5 %ID

SMILES: COc1ccccc1O[C@@H](c1ccccc1)[C@@H]1CNCCO1
- Ki [1]: 7.93 nM

SMILES: COc1ccc(F)cc1C[C@](O)(C1CCCC1)[C@@H]1CNCCO1
- Ki [1]: 10.8 nM

The next lines start with the values.

- Ki [1]: 8.29 nM
SMILES: CNC[C@@H](O)CN1c2ccccc2CCc2ccccc21

- Ratio [9]: 1.35
- Ratio [10]: 1.35
- Ratio [11]: 1.35
- Ratio [12]: 1.2
- Ratio [13]: 1
- Ratio [14]: 1.2
- Drug uptake [15]: 1.1 %ID
SMILES: [11CH3]NC[C@@H](O)CN1c2ccccc2CCc2ccccc21

- Ratio [16]: 1.5
SMILES: [11CH3]NC[C@@H](O)CC12CCC(c3ccccc31)c1ccccc12
